# According to PubChem BioAssay AID2060513 (Molecular Pharmacology Branch, DTP, NCI, 2025):
# Tested on: 299254-011-R-J1-PDC complex spheroids viability
# Experiment: Anticancer human tumor 299254-011-R-J1-PDC patient-derived melanoma cell line growth inhibition [GQUAD]
# Settings: for IC50: curve of first compound; for viability, T/C: stronger effect = lower value
# From the text: DNA G-quadruplex Stabilizer Agents in Combinations in Complex Spheroids
# A high-throughput screen of multi-cell type tumor spheroids was designed to identify active combinations of DNA G-quadruplex stabilizer agents and targeted small molecules. Complex spheroids include a stromal component modeled by human endothelial cells (HUVEC) and fibroblasts modeled by human mesenchymal stem cells (MSCs). The concentration ranges selected for each drug and investigational agent were based upon clinically achievable concentrations if the clinical Cmax of the agent was known.
# Compounds. The drugs and investigational agents: pidnarulex (CX-5461; NSC782164), APTO-253 (NSC789042), BRACO-19 (NSC847499), peposertib (NSC802822), ceralasertib (NSC780249), elimusertib (NSC800525), camonsertib (NSC841442), AZD-1390 (NSC803789), olaparib (NSC753686), talazoparib (NSC767125), ART-558 (NSC835418), sotorasib (NSC818433), MRTX-1133 (NSC836407), SN-38 (NSC673596), topotecan (NSC609699), etoposide (NSC141540), doxorubicin (NSC123127), gemcitabine (NSC613327), 5-fluorouracil (NSC19893), paclitaxel (NSC125973), vemurafenib (NSC761431), panobinostat (NSC761190), R-306465 (JNJ-16241199; NSC773264), adavosertib (NSC754352), TP-3654 (NSC805149), carboplatin (NSC241240), KSQ-4279 (NSC840948), and staurosporine (NSC755774) were obtained from the National Cancer Institute (NCI) Developmental Therapeutics Program Chemical Repository (34). The FDA-approved anticancer drug set is available from the NCI Developmental Therapeutics Program. […] The stock solutions were prepared in dimethyl sulfoxide (DMSO, Sigma-Aldrich, St. Louis, MO, cat. D2650) at 800-fold the tested concentration and stored at -70 degrees C prior to their use. All drugs and investigational agents were tested over a range starting from a high concentration at or near the clinical Cmax and decreasing in half-log increments. If the clinical Cmax for an agent had not been determined, the highest concentration tested was 10 microM.
# 2.3 Cell Culture. All cells were maintained in an incubator at 37 degrees C and 5% CO2 with 95% humidity. The PDC lines were cultured according to standard operating procedures established by the NCI PDMR. All PDCs were thawed and cultured in Matrigel-coated flasks prepared with a working solution of 1X Ham's F-12 nutrient mix, without supplementation (Invitrogen, cat. 11765054), 100 U/mL penicillin-streptomycin (Invitrogen, cat. 15140122), and 2.5% Matrigel (Corning Inc., cat. 354248) for the first three passages. The 857933-349-R-J2-PDC line was cultured in 6C/Colon 1B media, which includes advanced DMEM/F-12 (Thermo Fisher Scientific, cat. 12634028), 10 mM HEPES (Thermo Fisher Scientific, cat. 15630080), 1X GlutaMAX supplement (Thermo Fisher Scientific, cat. 35050061), 0.1 mg/mL primocin (InvivoGen, cat. ant-pm-2), 10% defined fetal bovine serum, heat inactivated (HyClone Laboratories Inc., cat. SH30070.03HI), 50% L-WRN conditioned media (ATCC, cat. CRL-3276), 1.25 mM N-Acetyl-L-cysteine (Sigma-Aldrich, cat. A9165), 10 mM nicotinamide (Sigma-Aldrich, cat. N0636), 1X B-27 supplement (Thermo Fisher Scientific, cat. 17504044), 1X N-2 supplement (Thermo Fisher Scientific, cat. 17502048), 10 microM Y-27632 dihydrochloride (Tocris Bioscience, cat. 1254), and 50 ng/mL human EGF recombinant protein (Thermo Fisher Scientific, cat. PHG0311). The 485176-168-R4-J1-PDC line was cultured in Panc media, which includes all 6C/Colon 1B media components plus 100 ng/mL human FGF-10 (Thermo Fisher Scientific, cat. 100-26), 500 nM SB-431542 (Selleckchem, cat. S1067), and gastrin (Tocris, cat. 3006).
# […]
# [1] = second compound 0.0316 µM, first compound 0.0316 µM
# [2] = second compound 0.0316 µM, first compound 0.1 µM
# [3] = second compound 0.0316 µM, first compound 0.316 µM
# [4] = second compound 0.0316 µM, first compound 1 µM
# [5] = second compound 0.0316 µM, first compound 3.16 µM
# [6] = second compound 0.0316 µM, first compound 10 µM
# [7] = second compound 0.1 µM, first compound 0.0316 µM
# [8] = second compound 0.1 µM, first compound 0.1 µM
# [9] = second compound 0.1 µM, first compound 0.316 µM
# [10] = second compound 0.1 µM, first compound 1 µM
# [11] = second compound 0.1 µM, first compound 3.16 µM
# [12] = second compound 0.1 µM, first compound 10 µM
# [13] = second compound 0.316 µM, first compound 0.0316 µM
# [14] = second compound 0.316 µM, first compound 0.1 µM
# [15] = second compound 0.316 µM, first compound 0.316 µM
# [16] = second compound 0.316 µM, first compound 1 µM
# [17] = second compound 0.316 µM, first compound 3.16 µM
# [18] = second compound 0.316 µM, first compound 10 µM
# [19] = second compound 1 µM, first compound 0.0316 µM
# [20] = second compound 1 µM, first compound 0.1 µM
# [21] = second compound 1 µM, first compound 0.316 µM
# [22] = second compound 1 µM, first compound 1 µM
# [23] = second compound 1 µM, first compound 3.16 µM
# [24] = second compound 1 µM, first compound 10 µM
# [25] = second compound 3.16 µM, first compound 0.0316 µM
# [26] = second compound 3.16 µM, first compound 0.1 µM
# [27] = second compound 3.16 µM, first compound 0.316 µM
# [28] = second compound 3.16 µM, first compound 1 µM
# [29] = second compound 3.16 µM, first compound 3.16 µM
# [30] = second compound 3.16 µM, first compound 10 µM
# [31] = second compound 10 µM, first compound 0.0316 µM
# [32] = second compound 10 µM, first compound 0.1 µM
# [33] = second compound 10 µM, first compound 0.316 µM
# [34] = second compound 10 µM, first compound 1 µM
# [35] = second compound 10 µM, first compound 3.16 µM
# [36] = second compound 10 µM, first compound 10 µM
# 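Also: spheroids exposed to the agents for seven days before readout.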
# 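For viability, T/C in this document: percent viability relative to DMSO vehicle control wells = 100%.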
structure (smiles),measurement,setting,value
C#Cc1c(F)ccc2cc(O)cc(-c3ncc4c(N5CC6CCC(C5)N6)nc(OCC56CCCN5CC(F)C6)nc4c3F)c12 (centres undefined) + Cc1cnc(CNC(=O)c2c(=O)c3ccc(N4CCCN(C)CC4)nc3n3c2sc2ccccc23)cn1,IC50,second compound 0.0316 µM,> 10 µM
same,IC50,second compound 0.1 µM,> 10 µM
same,IC50,second compound 0.316 µM,> 10 µM
same,IC50,second compound 1 µM,> 10 µM
same,IC50,second compound 3.16 µM,> 10 µM
same,IC50,second compound 10 µM,< 0.0316 µM
same,"viability, T/C",[1],108%
same,"viability, T/C",[2],87.8%
same,"viability, T/C",[3],102%
same,"viability, T/C",[4],93%
same,"viability, T/C",[5],96.2%
same,"viability, T/C",[6],79.8%
same,"viability, T/C",[7],123%
same,"viability, T/C",[8],99.2%
same,"viability, T/C",[9],122%
same,"viability, T/C",[10],91.7%
same,"viability, T/C",[11],103%
same,"viability, T/C",[12],80.5%
same,"viability, T/C",[13],113%
same,"viability, T/C",[14],115%
same,"viability, T/C",[15],117%
same,"viability, T/C",[16],87.1%
same,"viability, T/C",[17],91.1%
same,"viability, T/C",[18],74.1%
same,"viability, T/C",[19],81%
same,"viability, T/C",[20],105%
same,"viability, T/C",[21],94.4%
same,"viability, T/C",[22],102%
same,"viability, T/C",[23],83.1%
same,"viability, T/C",[24],85.6%
same,"viability, T/C",[25],74.8%
same,"viability, T/C",[26],103%
same,"viability, T/C",[27],99.8%
same,"viability, T/C",[28],85.8%
same,"viability, T/C",[29],83.4%
same,"viability, T/C",[30],88.6%
same,"viability, T/C",[31],50.6%
same,"viability, T/C",[32],18.7%
same,"viability, T/C",[33],43.6%
same,"viability, T/C",[34],33.4%
same,"viability, T/C",[35],51.3%
same,"viability, T/C",[36],0.39%
CCCS(=O)(=O)Nc1ccc(F)c(C(=O)c2c[nH]c3ncc(-c4ccc(Cl)cc4)cc23)c1F + Cc1cnc(CNC(=O)c2c(=O)c3ccc(N4CCCN(C)CC4)nc3n3c2sc2ccccc23)cn1,IC50,second compound 0.0316 µM,9.46 µM
same,IC50,second compound 0.1 µM,8.9 µM
same,IC50,second compound 0.316 µM,9.48 µM
same,IC50,second compound 1 µM,8.5 µM
same,IC50,second compound 3.16 µM,7.67 µM
same,IC50,second compound 10 µM,< 0.0316 µM
same,"viability, T/C",[1],107%
same,"viability, T/C",[2],94%
same,"viability, T/C",[3],83.1%
same,"viability, T/C",[4],106%
same,"viability, T/C",[5],130%
same,"viability, T/C",[6],47.1%
same,"viability, T/C",[7],119%
same,"viability, T/C",[8],129%
same,"viability, T/C",[9],92.9%
same,"viability, T/C",[10],128%
same,"viability, T/C",[11],116%
same,"viability, T/C",[12],42.6%
same,"viability, T/C",[13],92.8%
same,"viability, T/C",[14],109%
same,"viability, T/C",[15],92.9%
same,"viability, T/C",[16],99%
same,"viability, T/C",[17],113%
same,"viability, T/C",[18],47.5%
same,"viability, T/C",[19],88.5%
same,"viability, T/C",[20],85%
same,"viability, T/C",[21],105%
same,"viability, T/C",[22],96.8%
same,"viability, T/C",[23],106%
same,"viability, T/C",[24],42.4%
same,"viability, T/C",[25],85.5%
same,"viability, T/C",[26],96.6%
same,"viability, T/C",[27],106%
same,"viability, T/C",[28],91.5%
same,"viability, T/C",[29],118%
same,"viability, T/C",[30],35.1%
same,"viability, T/C",[31],4.58%
same,"viability, T/C",[32],0.48%
same,"viability, T/C",[33],0.57%
same,"viability, T/C",[34],0.54%
same,"viability, T/C",[35],0.42%
same,"viability, T/C",[36],0.34%
